{
  "source": "patent US20160175401A1",
  "about": "“COMPOITIONS AND METHODS FOR MODULATING THERMOGENESIS USING PTH-RELATED AND EGF-RELATED COMPOUNDS” (DANA-FARBER CANCER INSTITUTE INC., priority 2013, published 2016)",
  "assay_type_in_all_cases": "cell-based, mouse",
  "key": {"[1]": {"test_system": "primary white adipocytes", "assay": "Thermogenic gene expression (qRT-PCR) in primary white adipocytes", "settings": "for induce thermogenic gene expression, such as that of Ucp1 and Dio2: 1 μg/mL of the protein, primary white adipocytes (FIG. 6, FIG. 19E); for induce thermogenic gene expression, such as that of Ucp1 and Dio2 / effect on Ucp1 expression / thermogenic gene expression by EGF proteins: 24 hours; for effect on Ucp1 expression / thermogenic gene expression by EGF proteins: 1 μg/mL or 100 ng/mL, primary white adipocytes (FIG. 14A)", "protocol": "Inguinal SV fractions were obtained from 30-35 days-old male mice by the following procedure. Inguinal fat tissue was dissected, washed with PBS, minced and digested for 45 min at 37° C. in PBS containing 10 mM CaCl, 2.4 U/mL dispase II (Roche), and 1.5 U/mL collagenase D (Roche). Digested tissue was filtered through a 100-μm cell strainer and centrifuged at 600 g for 5 min to pellet the SV cells which were then resuspended in SV culture medium (DMEM/F12 [1:1; Invitrogen] plus glutamax, pen/strep, and 10% FBS), filtered through a 40-μm cell strainer, centrifugation as above, resuspended in SV culture medium and plated. SV cells were grown to confluency for adipocyte differentiation which was induced by the adipogenic cocktail containing 1 μM dexamethasone, 5 μg/mL insulin, […] isobutylmethylxanthine (DMI), and 1 μM rosiglitazone in SV culture medium. 2 days after induction, cells were maintained in SV culture medium containing 5 μg/mL insulin and 1 μM rosiglitazone. Starting at day 6, cells were maintained in SV culture medium only and treated with various molecules for […] and harvested at day 8.\nLLC cells were maintained in DMEM (Invitrogen) with 10% FBS and pen/strep. For conditioned media collection, cells were plated at ⅓ confluency. The following day, medium is changed to FreeStyle expression medium (Invitrogen) which was collected 24 hours later. For concentration of expression medium, LLC conditioned media was filtered using a 3 kilodalton (Kd) cut-off filter (Millipore). Adipocytes were maintained in SV culture media (DMEM/F12 [1:1; Invitrogen] plus glutamax, pen/strep, and 10% FBS) and conditioned media treatment experiments were performed 7 days post-differentiation. When adipocytes were treated with conditioned media for 24 hours, the treatment media were composed of 50% SV culturing medium and 50% LLC conditioned media. When conditioned medium was filtered and concentrated, adipocytes were exposed to 90% SV culturing medium and 10% concentrated LLC conditioned media.\nRNA was extracted from cultured cells or frozen tissue samples using TRIzol (Invitrogen), purified with Qiagen RNAeasy minicolums and reverse transcribed using High Capacity cDNA Reverse Transcription kit (Applied Biosystems). Resulting cDNA was analyzed by RT-qPCR. Briefly, 25 ng of cDNA and […] of each primer were mixed with SYBR® GreenER™ PCR Master Mix (Invitrogen). Reactions were performed in 384-well format using an ABI PRISM® 7900HT instrument (Applied Biosystems). Relative mRNA levels were calculated using the comparative CT method normalized to cyclophilin.\nInguinal stroma-vascular fractions were obtained from 30-35-day-old male mice using the following procedure: Inguinal fat tissue was dissected, washed with PBS, minced and digested for 45 min at 37° C. in PBS containing 10 mM CaCl2, 2.4 Uml^−1 dispase 11 (Roche) and 1.5 U ml^−1 collagenaseD (Roche). Digested tissue was filtered through a 100-μm cell strainer and centrifuged at 600 g for 5 min to pellet the stroma-vascular cells. The pellets were then resuspended in adipocyte culture medium (DMEM/F2 (1:1, Invitrogen) plus GlutaMAX, penicillin and streptomycin, and 10% FBS), filtered through a 40-μm cell strainer, centrifuged as above, resuspended in adipocyte culture medium and plated. The stroma-vascular cells were grown to confluence for adipocyte differentiation, which was induced by an adipogenic cocktail containing 1 μM dexamethasone, 5 μg ml^−1 insulin, […] isobutylmethylxanthine (DMI) and 1 μM rosiglitazone in adipocyte culture medium. Two days after induction, cells were maintained in adipocyte culture medium containing 5 μg ml^−1 insulin and 1 μM rosiglitazone. Starting on day 6, cells were maintained in adipocyte culture medium only and treated with various molecules for 2-24 h and harvested on day 8.\nLLC cells were maintained in DMEM (Invitrogen) with 10% FBS, and penicillin and streptomycin. For conditioned medium collection, cells were plated at a 1:3 confluence."}, "[2]": {"test_system": "PKA substrates CREB and HSL", "assay": "PKA signalling: protein phosphorylation by western blotting in primary adipocytes", "protocol": "UCP1 protein levels were measured by western blotting in white (FIG. 23A) and brown (FIG. 23B) adipocytes. […] Real-time triplicate readings (upper panel) and their averages (lower panel) are shown (n=4). […] The values are mean±s.e.m. Statistical analysis was conducted using the two-tailed t-test. *, P<0.05; **, P<0.005; ***, P<0.0005, compared with the control group.\n(§1) Cells were homogenized in a lysis buffer containing 50 mMTris (pH 7.4), 500 mM NaCl, 1% NP40, 20% glycerol, 5 mM EDTA and 1 mM phenylmethylsulphonyl fluoride (PMSF) supplemented with protease and phosphatase inhibitor cocktails (Roche). The homogenates were centrifuged at 13,000 r.p.m. for 10 min, and the supernatants were used as whole-cell lysates. Protein concentration was determined by Bio-Rad protein assay, and […] protein lysate was separated in each SDS-PAGE lane. The separated proteins were transferred to a polyvinylidene difluoride (PVDF)membrane, which was blotted with antibodies in TBS containing 0.05% Tween (TBS-T) and 5% BSA. For secondary antibody incubation. TBS-T containing 5% milk was used. Enhanced chemiluminescence (ECL) western blotting substrates (Pierce) were used for visualization of the results."}, "[3]": {"test_system": "primary white adipocytes", "assay": "Cellular oxygen consumption rate (XF24 Extracellular Flux Analyzer, Seahorse) of primary adipocytes", "protocol": "The cellular oxygen consumption rate (OCR) of primary adipocytes was determined using an XF24 Extracellular Flux Analyzer (Seahorse Bioscience). […] Twenty-four hours later, adipocyte culture medium was changed to DMEM lacking NaHCO3 but containing 10 mM glucose, 1 mM pyruvate and the treatment chemicals. The uncoupled and maximal OCRs were determined using […] (carbonyl cyanide p-trifluoromethoxyphenylhydrazone), respectively. Complex-1-dependent respiration was inhibited with 3 μM rotenone. Ex vivo tissue respiration was measured using a Clark electrode (Strathkelvin Instruments) as described in Cohen et al. (2014) Cell 156:304-316. Freshly isolated tissues were briefly minced and transferred to the electrode chamber containing a respiration buffer consisting of 1×DPBS (Delbecco's phosphate-buffered saline), 2% BSA, 25 mM glucose and 1 mM pyruvate. Oxygen consumption values were normalized to tissue weight."}, "[4]": {"test_system": "UCP1", "assay": "UCP1 protein levels by western blotting in primary adipocytes", "protocol": "Cells were homogenized in a lysis buffer containing 50 mM Tris (pH 7.4), 500 mM NaCl, 1% NP40, 20% glycerol, 5 mM EDTA and 1 mM PMSF, supplemented with protease and phosphatase inhibitor cocktails (Roche). The homogenates were centrifuges at 13,000 rpm for 10 min and the supernatants were used as whole cell lysates. Protein concentration was determined by Bio-Rad Bradford assay and 50 μg of proteins were used in each SDS-PAGE run. PVDF membrane was blotted with UCP1 antibody (Abeam) in TBS containing 0.05% Tween and 5% BSA. For secondary antibody incubation, TBS-T containing 5% milk was used. ECL western blotting substrates from Pierce were used for visualization of the results.\nas §1"}},
  "note": "“Also recorded” adds a separate entry of the source.",
  "data": [
    {"molecule": "C=CC(=O)Nc1ccc2ncnc(Nc3ccc(OCc4cccc(F)c4)c(Cl)c3)c2c1", "note": "[AST-1306, reference compound]", "values": [
      {"measurement": "effect on LLC cell conditioned media thermogenic (browning) activity", "setting": "[1]; AST-1306 1 μM, LLC-cell-conditioned medium, 24 h (FIG. 14C, 21A)", "result": "does not inhibit or affect; also recorded: does not block; also recorded: largely unaffected"},
      {"measurement": "inhibition of BTC, EREG and HBEGF activity (Ucp1 mRNA induction)", "setting": "[1]; AST-1306 1 μM, BTC, EREG, HBEGF 100 ng/ml each, 24 h (FIG. 14B, 20C)", "result": "inhibit BTC, EREG and HBEGF activity; also recorded: completely blocked Ucp1 mRNA induction"}
    ]},
    {"molecule": "O=S(=O)(NCCNC/C=C/c1ccc(Br)cc1)c1cccc2cnccc12", "note": "[H89, reference compound]", "values": [
      {"measurement": "transcriptional regulation (Ucp1, Dio2) by noradrenaline, PTHrP and PTH", "setting": "[1]; H89 50 μM white, 30 μM brown adipocytes, factors 2 h (FIG. 23F-23G)", "result": "completely inhibited transcriptional regulation"},
      {"measurement": "PKA signalling", "setting": "[2]; H89 50 μM white, 30 μM brown adipocytes, pretreated 1 h (FIG. 23D-23E)", "result": "blocked PKA signalling"}
    ]},
    {"molecule": "NC[C@H](O)c1ccc(O)c(O)c1", "note": "[norepinephrine, reference compound]", "values": [
      {"measurement": "oxygen consumption, including basal, uncoupled and maximal respiration", "setting": "[3]; 100 nM NE, 100 ng ml^−1 PTHrP or PTH, 24 h (FIG. 23C)", "result": "significantly raised oxygen consumption"},
      {"measurement": "uncoupled respiration and maximal respiration potential", "setting": "[3]; 24 hour treatment, norepinephrine 100 nM, peptides 100 ng/mL, SeaHorse (FIG. 8D)", "result": "significantly elevate"},
      {"measurement": "phosphorylation of the PKA substrates CREB and HSL", "setting": "[2]; 100 nM NE, 100 ng ml^−1 PTHrP or PTH, 30 min, primary white and brown adipocytes (FIG. 23D-23E)", "result": "stimulated the phosphorylation"},
      {"measurement": "UCP1 protein levels", "setting": "[4]; 100 nM NE, 100 ng ml^−1 PTHrP or PTH, 24 h, primary white and brown adipocytes (FIG. 23A-23B)", "result": "comparably increased UCP1 protein levels"},
      {"measurement": "UCP1 protein levels", "setting": "[4]; 24 hour treatment, norepinephrine 100 nM, peptides 100 ng/mL, western blotting (FIG. 8D)", "result": "significantly increased"}
    ]},
    {"molecule": "EREG: recombinant mouse EREG (Val56-Leu101; Catalog No. 1068-EP/CF), R&D Systems", "values": [
      {"measurement": "induce thermogenic gene expression, such as that of Ucp1 and Dio2", "setting": "[1]", "result": "most potent proteins to induce thermogenic gene expression; also recorded: most potent proteins for inducing thermogenic gene expression; also recorded: induced Ucp1 expression"},
      {"measurement": "effect on Ucp1 expression / thermogenic gene expression by EGF proteins", "setting": "[1]", "result": "largest effect on Ucp1 expression"}
    ]},
    {"molecule": "TGFA: recombinant human TGFA (Val40-Ala89; Catalog No. 239-A-100), R&D Systems", "values": [
      {"measurement": "effect on Ucp1 expression / thermogenic gene expression by EGF proteins", "setting": "[1]", "result": "largest effect on Ucp1 expression"}
    ]},
    {"molecule": "HBEGF: recombinant human HBEGF (Met1-Leu148; Catalog No. 259-HE-050/CF), R&D Systems (protein) LVTGESLERLRRGLAAGTSNPDPPTVSTDQLLPLGGGRDRKVRDLQEADLDLLRVTLSSKPQALATPNKEEHGKRKKKGKGLGKKRDPCLRKYKDFCIHGECKYVKELRAPSCICHPGYHGERCHGLSL", "values": [
      {"measurement": "induce thermogenic gene expression, such as that of Ucp1 and Dio2", "setting": "[1]", "result": "most potent proteins for inducing thermogenic gene expression; also recorded: induced Ucp1 expression"},
      {"measurement": "induce thermogenic gene expression, such as that of Ucp1 and Dio2", "setting": "[1]; listed as HB-EGF", "result": "most potent proteins to induce thermogenic gene expression"},
      {"measurement": "effect on Ucp1 expression / thermogenic gene expression by EGF proteins", "setting": "[1]", "result": "largest effect on Ucp1 expression"}
    ]},
    {"molecule": "BTC: recombinant mouse BTC (Asp32-Gln118; Catalog No. 1025-CE-025/CF), R&D Systems (protein) DGNTTRTPETNGSLCGAPGENCTGTTPRQKVKTHFSRCPKQYKHYCIHGRCRFVVDEQTPSCICEKGYFGARCERVDLFYLQQDRGQ", "values": [
      {"measurement": "induce thermogenic gene expression, such as that of Ucp1 and Dio2", "setting": "[1]", "result": "most potent proteins to induce thermogenic gene expression; also recorded: most potent proteins for inducing thermogenic gene expression; also recorded: induced Ucp1 expression"}
    ]}
  ]
}
